The NIST ThermoML archive (doi:10.1016/j.fluid.2011.02.010)
± gives the expanded uncertainty stated by the source.

Assays:
[1] = for mass density / viscosity / speed of sound: 101 kPa; for speed of sound: Frequency=2 MHz
[2] = xn = mol fraction of the nth substance listed; conditions: 101 kPa, Liquid, x2 = 0; for speed of sound: Frequency=2 MHz

CCCCn1cc[n+](C)c1.[Cl-] [1-butyl-3-methylimidazolium chloride]
mass density ([1]; 298.15 K, Liquid): 1074.43 ± 10 kg/m3 | viscosity ([1]; 298.15 K, Liquid): 29.21 ± 1.9 mPa·s | speed of sound ([1]; 298.15 K, Liquid): 1868 ± 11 m/s | mass density ([1]; 303.15 K, Liquid): 1071.38 ± 10 kg/m3 | viscosity ([1]; 303.15 K, Liquid): 25.72 ± 1.7 mPa·s | speed of sound ([1]; 303.15 K, Liquid): 1860 ± 11 m/s | mass density ([1]; 308.15 K, Liquid): 1068.32 ± 10 kg/m3 | viscosity ([1]; 308.15 K, Liquid): 21.21 ± 1.4 mPa·s | speed of sound ([1]; 308.15 K, Liquid): 1848 ± 11 m/s | mass density ([1]; 318.15 K, Liquid): 1062.14 ± 10 kg/m3 | viscosity ([1]; 318.15 K, Liquid): 18.97 ± 1.2 mPa·s | speed of sound ([1]; 318.15 K, Liquid): 1820 ± 11 m/s | mass density ([1]; 328.15 K, Liquid): 1055.89 ± 10 kg/m3 | viscosity ([1]; 328.15 K, Liquid): 16.74 ± 1.1 mPa·s | speed of sound ([1]; 328.15 K, Liquid): 1804 ± 10 m/s

CC[NH2+]CC.O=S(=O)([O-])O [diethylammonium hydrogen sulfate]
mass density ([1]; 298.15 K, Metastable liquid): 1028.39 ± 10 kg/m3 | viscosity ([1]; 298.15 K, Metastable liquid): 25.8 ± 1.7 mPa·s | speed of sound ([1]; 298.15 K, Metastable liquid): 1432 ± 9 m/s | mass density ([1]; 303.15 K, Metastable liquid): 1023.97 ± 10 kg/m3 | viscosity ([1]; 303.15 K, Metastable liquid): 21.3 ± 1.4 mPa·s | speed of sound ([1]; 303.15 K, Metastable liquid): 1408 ± 9 m/s | mass density ([1]; 308.15 K, Metastable liquid): 1020.54 ± 10 kg/m3 | viscosity ([1]; 308.15 K, Metastable liquid): 18.1 ± 1.2 mPa·s | speed of sound ([1]; 308.15 K, Metastable liquid): 1392 ± 9 m/s | mass density ([1]; 318.15 K, Metastable liquid): 1012.68 ± 10 kg/m3 | viscosity ([1]; 318.15 K, Metastable liquid): 13.61 ± 0.92 mPa·s | speed of sound ([1]; 318.15 K, Metastable liquid): 1356 ± 8 m/s | mass density ([1]; 328.15 K, Metastable liquid): 1004.83 ± 10 kg/m3 | viscosity ([1]; 328.15 K, Metastable liquid): 10.2 ± 0.7 mPa·s | speed of sound ([1]; 328.15 K, Metastable liquid): 1324 ± 8 m/s | Normal melting temperature ([1]; Crystal, visual observation): 81.00 ± 1 °C

C[S+](C)[O-] [dimethyl sulfoxide]
mass density ([1]; 298.15 K, Liquid): 1095.37 ± 10 kg/m3 | viscosity ([1]; 298.15 K, Liquid): 1.99 ± 0.19 mPa·s | speed of sound ([1]; 298.15 K, Liquid): 1496 ± 9 m/s | mass density ([1]; 303.15 K, Liquid): 1092.41 ± 10 kg/m3 | viscosity ([1]; 303.15 K, Liquid): 1.8 ± 0.17 mPa·s | speed of sound ([1]; 303.15 K, Liquid): 1472 ± 9 m/s | mass density ([1]; 308.15 K, Liquid): 1086.07 ± 10 kg/m3 | viscosity ([1]; 308.15 K, Liquid): 1.65 ± 0.16 mPa·s | speed of sound ([1]; 308.15 K, Liquid): 1460 ± 9 m/s | mass density ([1]; 318.15 K, Liquid): 1076.22 ± 10 kg/m3 | viscosity ([1]; 318.15 K, Liquid): 1.38 ± 0.15 mPa·s | speed of sound ([1]; 318.15 K, Liquid): 1428 ± 9 m/s | mass density ([1]; 328.15 K, Liquid): 1066.09 ± 10 kg/m3 | viscosity ([1]; 328.15 K, Liquid): 1.04 ± 0.13 mPa·s | speed of sound ([1]; 328.15 K, Liquid): 1412 ± 8 m/s

C[S+](C)[O-] [dimethyl sulfoxide] + CCCCn1cc[n+](C)c1.[Cl-]
speed of sound ([2]; 298.15 K): 1496 ± 9 m/s | mass density ([2]; 298.15 K): 1095.37 ± 10 kg/m3 | viscosity ([2]; 298.15 K): 1.99 ± 0.19 mPa·s | speed of sound ([2]; 303.15 K): 1472 ± 9 m/s | mass density ([2]; 303.15 K): 1092.41 ± 10 kg/m3 | viscosity ([2]; 303.15 K): 1.8 ± 0.17 mPa·s | speed of sound ([2]; 308.15 K): 1460 ± 9 m/s | mass density ([2]; 308.15 K): 1086.07 ± 10 kg/m3 | viscosity ([2]; 308.15 K): 1.65 ± 0.16 mPa·s | speed of sound ([2]; 318.15 K): 1428 ± 9 m/s | mass density ([2]; 318.15 K): 1076.22 ± 10 kg/m3 | viscosity ([2]; 318.15 K): 1.38 ± 0.15 mPa·s | speed of sound ([2]; 328.15 K): 1412 ± 8 m/s | mass density ([2]; 328.15 K): 1066.09 ± 10 kg/m3 | viscosity ([2]; 328.15 K): 1.04 ± 0.13 mPa·s

C[S+](C)[O-] [dimethyl sulfoxide] + CC[NH2+]CC.O=S(=O)([O-])O
speed of sound ([2]; 298.15 K): 1496 ± 9 m/s | mass density ([2]; 298.15 K): 1095.37 ± 10 kg/m3 | viscosity ([2]; 298.15 K): 1.99 ± 0.19 mPa·s | speed of sound ([2]; 303.15 K): 1472 ± 9 m/s | mass density ([2]; 303.15 K): 1092.41 ± 10 kg/m3 | viscosity ([2]; 303.15 K): 1.8 ± 0.17 mPa·s | speed of sound ([2]; 308.15 K): 1460 ± 9 m/s | mass density ([2]; 308.15 K): 1086.07 ± 10 kg/m3 | viscosity ([2]; 308.15 K): 1.65 ± 0.16 mPa·s | speed of sound ([2]; 318.15 K): 1428 ± 9 m/s | mass density ([2]; 318.15 K): 1076.22 ± 10 kg/m3 | viscosity ([2]; 318.15 K): 1.38 ± 0.15 mPa·s | speed of sound ([2]; 328.15 K): 1412 ± 8 m/s | mass density ([2]; 328.15 K): 1066.09 ± 10 kg/m3 | viscosity ([2]; 328.15 K): 1.04 ± 0.13 mPa·s
